Assay results: ChEMBL document CHEMBL1149656, “Respiratory syncytial virus fusion inhibitors. Part 6: an examination of the effect of structural variation of the benzimidazol-2-one heterocycle moiety” (Bioorg Med Chem Lett, 2007)
pEC50: −log10 of the molar value.

Tests used:
[1] = system: Respiratory syncytial virus; test: Antiviral activity against RSV Long in Hep2 cells; format: functional, organism-based; settings: human respiratory syncytial virus, HEp-2
[2] = Cytotoxicity against human Hep2 cells; format: cell-based, HEp-2
[3] = system: Respiratory syncytial virus; test: Antiviral activity against RSV Long with F1 protein K349R mutation in Hep2 cells; format: functional, organism-based; settings: hep-2
[4] = system: Respiratory syncytial virus; test: Reduction of viral RNA in lungs of RSV-infected BALB/c mouse at 50 mg/kg by RT-PCR method; format: functional, Lung
[5] = Metabolic stability in human liver microsomes; format: ADME, Microsome

Row | SMILES | pEC50 [1] | CC50 [2] | pEC50 [3] | log10 TCID50 [4] | half-life [5]
1 | O=C1CSc2ccccc2N1Cc1nc2ccccc2n1CCCCF | 5.99 | > 96.4 µM | – | – | –
2 | N#CCCCCn1c(CN2C(=O)CS(=O)(=O)c3ccccc32)nc2ccccc21 | 5.87 | > 270 µM | – | – | –
3 | CC(C)CCn1c(CN2C(=O)C(CC(=O)NCc3ccccc3)c3ccccc32)nc2ccccc21 (centres undefined) | 6.96 | 0.72 µM | – | – | –
4 | N#CCCCn1c(CN2C(=O)N(C3CC3)S(=O)(=O)c3ccccc32)nc2ccccc21 | 7.26 | > 244 µM | – | – | –
5 | CCOC(=O)c1c(OC)c(=O)n(Cc2nc3ccccc3n2CCCCF)c2ccccc12 | 6.83 | 61.6 µM | – | – | –
6 | CC1(C)Sc2ccccc2N(Cc2nc3ccccc3n2CCCCF)C1=O | < 3.60 | 32.6 µM | – | – | –
7 | COC(=O)c1ccc(Cn2c(=O)c3ccccc3n(Cc3nc4ccccc4n3CCC(C)C)c2=O)cc1 | 6.59 | 11.2 µM | – | – | –
8 | O=c1c(O)cc2ccccc2n1Cc1nc2ccccc2n1CCCCF | < 3.56 | 20.2 µM | – | – | –
9 | O=C(O)c1c(O)c(=O)n(Cc2nc3ccccc3n2CCCCF)c2ccccc12 | 4.59 | > 38.6 µM | – | – | –
10 | CN1C(=O)N(Cc2nc3ccccc3n2CCCS(C)(=O)=O)c2ccccc2S1(=O)=O | 5.24 | 34.5 µM | – | – | –
11 | CC(C)CCn1c(CN2C(=O)N(C3CC3)S(=O)(=O)c3ccccc32)nc2cc(CN)ccc21 | 8.52 | 7.03 µM | 7.70 | – | –
12 | O=c1ccc2ccccc2n1Cc1nc2ccccc2n1CCCCF | 5.64 | 103 µM | – | – | –
13 | O=C1N(Cc2nc3ccccc3n2CCCCF)c2ccccc2S(=O)(=O)N1C1CC1 | 6.36 | 111 µM | – | – | –
14 | O=c1c2ccccc2n(Cc2nc3ccccc3n2CCCCF)c(=O)n1C1CC1 | 7.30 | 38.1 µM | – | – | –
15 | COc1cc(=O)n(Cc2nc3cc(CN)ccc3n2CCCCO)c2ccccc12 | 8.10 | 81.5 µM | < 6.30 | – | –
16 | N#CCCCCn1c(CN2C(=O)CCc3ccccc32)nc2ccccc21 | 5.96 | 27.1 µM | – | – | –
17 | CN1C(=O)N(Cc2nc3ccccc3n2CCCCO)c2ccccc2S1(=O)=O | 7.72 | 219 µM | – | – | –
18 | CC(C)CCn1c(CN2C(=O)C(CC(=O)N(C)C)c3ccccc32)nc2ccccc21 (centres undefined) | 6.69 | 4.67 µM | – | – | –
19 | O=c1c(Br)cc2ccccc2n1Cc1nc2ccccc2n1CCCCF | 6.10 | 26.2 µM | – | – | –
20 | O=C1CS(=O)(=O)c2ccccc2N1Cc1nc2ccccc2n1CCCCF | 6.64 | 211 µM | – | – | –
21 | COc1cc(=O)n(Cc2nc3cc(CN)ccc3n2CCCCF)c2ccccc12 | 8.05 | 24.1 µM | < 5.30 | – | –

Row | SMILES | pEC50 [1] | CC50 [2] | pEC50 [3] | log10 TCID50 [4] | half-life [5]
22 | CC(C)CCn1c(CN2C(=O)C(CC(=O)NCCc3ccccc3)c3ccccc32)nc2ccccc21 (centres undefined) | 6.42 | 0.94 µM | – | – | –
23 | CC(C)CCn1c(Cn2c(=O)n(C3CC3)c(=O)c3ccccc32)nc2cc(CN)ccc21 | 7.96 | 8.58 µM | – | – | –
24 | O=C(O)c1ccc(Cn2c(=O)c3ccccc3n(Cc3nc4ccccc4n3CCn3cnnn3)c2=O)cc1 | 6.26 | 54.7 µM | – | – | –
25 | CN1C(=O)N(Cc2nc3ccccc3n2CCCCF)c2ccccc2S1(=O)=O | 7.43 | 87.7 µM | – | – | –
26 | CC(C)CCn1c(CN2C(=O)CSc3ccccc32)nc2ccccc21 | 6.56 | 6.78 µM | – | – | –
27 | NCc1ccc2c(c1)nc(Cn1c(=O)n(C3CC3)c(=O)c3ccccc31)n2CCCCO | 7.74 | > 181 µM | < 6.30 | 0.45 | > 1.67 h
28 | NCc1ccc2c(c1)nc(Cn1c(=O)n(C3CC3)c(=O)c3ccccc31)n2CCCCF | 8.05 | 40.6 µM | < 6.30 | 1.4 | > 1.67 h
29 | N#CCCCn1c(Cn2c(=O)oc3ccccc32)nc2ccccc21 | 5.60 | > 300 µM | – | – | –
30 | CC1(C)C(=O)N(Cc2nc3ccccc3n2CCCC#N)c2ccccc21 | 7.72 | > 100 µM | – | – | –
31 | CC(C)CCn1c(Cn2c(=O)n(Cc3ccc(C(=O)O)cc3)c(=O)c3ccccc32)nc2ccccc21 | 8.05 | 19.3 µM | – | – | –
32 | NCc1ccc2c(c1)nc(Cn1c(=O)n(CC(F)(F)F)c(=O)c3ccccc31)n2CCCCO | 8.10 | 52.7 µM | < 6.30 | – | –
33 | CC(C)CCn1c(CN2C(=O)N(CC(=O)O)S(=O)(=O)c3ccccc32)nc2ccccc21 | 6.58 | 60.2 µM | – | – | –
34 | CCOC(=O)Cn1c(=O)c2ccccc2n(Cc2nc3ccccc3n2CCC(C)C)c1=O | 5.73 | 16.6 µM | – | – | –
35 | O=c1c2ccccc2n(Cc2nc3ccccc3n2CCCCO)c(=O)n1C1CC1 | 7.60 | 42.6 µM | – | – | –
36 | CS(=O)(=O)CCCn1c(Cn2c(=O)n(CC(F)(F)F)c(=O)c3ccccc32)nc2cc(CN)ccc21 | 7.68 | > 123 µM | 6.30 | – | –
37 | NCc1ccc2c(c1)nc(Cn1c(=O)n(CC(F)(F)F)c(=O)c3ccccc31)n2CCCCF | 8.10 | 11.8 µM | < 6.30 | 1.6 | > 1.67 h
38 | CCc1cc2ccccc2n(Cc2nc3ccccc3n2CCCCF)c1=O | 6.04 | 85.1 µM | – | – | –
39 | COc1cc(=O)n(Cc2nc3ccccc3n2CCCCF)c2ccccc12 | 6.68 | 59.5 µM | – | – | –
40 | Cn1c(=O)c2ccccc2n(Cc2nc3ccccc3n2CCCCO)c1=O | 7.09 | 48.6 µM | – | – | –
41 | CC1(C)C(=O)N(Cc2nc3ccccc3n2CCCCF)c2ccccc2S1(=O)=O | 5.12 | 158 µM | – | – | –
42 | COC(=O)c1ccc2c(c1)nc(Cn1c(=O)n(C3CC3)c(=O)c3ccccc31)n2CCC(C)C | < 3.66 | 0.23 µM | – | – | –

Row | SMILES | pEC50 [1] | CC50 [2] | pEC50 [3] | log10 TCID50 [4] | half-life [5]
43 | CCCCNCc1ccc2c(c1)nc(Cn1c(=O)n(C3CC3)c(=O)c3ccccc31)n2CCC(C)C | < 3.72 | 4.15 µM | – | – | –
44 | CC(C)CCn1c(Cn2c(=O)n(C3CC3)c(=O)c3ccccc32)nc2cc(CO)ccc21 | 6.50 | 62.1 µM | – | – | –
45 | CN(C)CCn1c(CN2C(=O)CCc3ccccc32)nc2ccccc21 | 6.34 | 153 µM | – | – | –
46 | CC(C)CCn1c(CN2C(=O)C(Cc3ccccc3)C(=O)c3ccccc32)nc2ccccc21 (centres undefined) | 5.74 | 20.1 µM | – | – | –
47 | CC(C)CCn1c(CN2C(=O)C(C)(O)c3ccccc32)nc2ccccc21 (centres undefined) | 7.01 | 101 µM | – | – | –
48 | CCOC(=O)Cn1c(=O)c2ccccc2n(Cc2nc3ccccc3n2CCn2cnnn2)c1=O | 6.54 | 8.06 µM | – | – | –
49 | CC(C)CCn1c(Cn2c(=O)oc3ccccc32)nc2ccccc21 | 7.36 | 30.7 µM | – | – | –
50 | CC(C)CCn1c(Cn2c(=O)n(CC(=O)O)c(=O)c3ccccc32)nc2ccccc21 | 5.99 | > 221 µM | – | – | –
51 | CC(C)CCn1c(CN2C(=O)C(=O)c3ccccc32)nc2ccccc21 | 6.64 | 69.8 µM | – | – | –
52 | CC(C)CCn1c(CN2C(=O)Cc3ccccc32)nc2ccccc21 | 7.49 | 8.58 µM | – | – | –
53 | CC(C)CCn1c(CN2C(=O)C(O)c3ccccc32)nc2ccccc21 (centres undefined) | 6.79 | 3.31 µM | – | – | –
54 | COC(=O)c1ccc(Cn2c(=O)c3ccccc3n(Cc3nc4ccccc4n3CCn3cnnn3)c2=O)cc1 | 6.77 | 25.3 µM | – | – | –
55 | CC(C)CCn1c(CN2C(=O)C(CC(=O)O)c3ccccc32)nc2ccccc21 (centres undefined) | 6.15 | 16.5 µM | – | – | –
56 | CNCc1ccc2c(c1)nc(Cn1c(=O)n(C3CC3)c(=O)c3ccccc31)n2CCC(C)C | 6.10 | 17.9 µM | – | – | –
57 | Cn1c(=O)c2ccccc2n(Cc2nc3ccccc3n2CCCCF)c1=O | 7.44 | > 25.9 µM | – | – | –
58 | O=C(O)Cn1c(=O)c2ccccc2n(Cc2nc3ccccc3n2CCn2cnnn2)c1=O | 5.28 | 213 µM | – | – | –
59 | CC(C)CCn1c(Cn2c(=O)n(C3CC3)c(=O)c3ccccc32)nc2cc(C(=O)O)ccc21 | < 4.16 | 102 µM | – | – | –
60 | N#CCCCn1c(Cn2c(=O)n(C3CC3)c(=O)c3ccccc32)nc2ccccc21 | 6.77 | 9.05 µM | < 6.30 | – | –
61 | CC(C)CCn1c(CN2C(=O)N(CC(=O)OC(C)(C)C)S(=O)(=O)c3ccccc32)nc2ccccc21 | 7.08 | 18.4 µM | – | – | –
62 | CC(C)CCn1c(CN2C(=O)CS(=O)(=O)c3ccccc32)nc2ccccc21 | 7.23 | 63 µM | – | – | –
